Experimental data published in ChEMBL document CHEMBL1148013, “Synthesis, biological evaluation and molecular modeling studies of arylidene-thiazolidinediones with potential hypoglycemic and hypolipidemic activities” (2007).

How the values were obtained:
Assay type in all cases: functional
Set-up in all cases: scale not given: the % may be the effect or the level left
[1] = tested on: Mus musculus; assay: Reduction in plasma glucose level in alloxan-induced diabetic mouse at 10 mg/kg/day, po after 15 days relative to control
[2] = tested on: Mus musculus; assay: Reduction in plasma triglyceride level in alloxan-induced diabetic mouse at 10 mg/kg/day, po after 15 days relative to control
[3] = tested on: Mus musculus; assay: Reduction in plasma glucose level in alloxan-induced diabetic mouse at 30 mg/kg/day, po after 15 days relative to control
[4] = tested on: Mus musculus; assay: Reduction in plasma triglyceride level in alloxan-induced diabetic mouse at 30 mg/kg/day, po after 15 days relative to control
[5] = tested on: Mus musculus; assay: Reduction in plasma glucose level in alloxan-induced diabetic mouse at 5 mg/kg/day, po after 15 days relative to control
[6] = tested on: Mus musculus; assay: Reduction in plasma triglyceride level in alloxan-induced diabetic mouse at 5 mg/kg/day, po after 15 days relative to control
[7] = tested on: Mus musculus; assay: Reduction in plasma glucose level in alloxan-induced diabetic mouse at 20 mg/kg/day, po after 15 days relative to control
[8] = tested on: Mus musculus; assay: Reduction in plasma triglyceride level in alloxan-induced diabetic mouse at 20 mg/kg/day, po after 15 days relative to control
[9] = tested on: Mus musculus; assay: Reduction in plasma glucose level in alloxan-induced diabetic mouse at 40 mg/kg/day, po after 15 days relative to control
[10] = tested on: Mus musculus; assay: Reduction in plasma triglyceride level in alloxan-induced diabetic mouse at 40 mg/kg/day, po after 15 days relative to control

Structure (SMILES)	Activity [1] [%]	Activity [2] [%]	Activity [3] [%]	Activity [4] [%]	Activity [5] [%]	Activity [6] [%]	Activity [7] [%]	Activity [8] [%]	Activity [9] [%]	Activity [10] [%]
Cc1ccc(/C=C2\SC(=O)N(Cc3ccc(C)cc3)C2=O)cc1	16.3	41.7	–	–	–	–	–	–	–	–
Cc1ccc(CN2C(=O)S/C(=C\c3ccc([N+](=O)[O-])cc3)C2=O)cc1	–	–	11.42	7.1	–	–	–	–	–	–
Cc1ccc(CN2C(=O)S/C(=C\c3ccc(F)cc3)C2=O)cc1	–	–	13.5	–	–	–	–	–	–	–
COc1ccc(/C=C2\SC(=O)N(Cc3ccc(C)cc3)C2=O)cc1	20.6	37.6	50.8	58.8	27.2	32.2	–	–	–	–
CN(CCOc1ccc(CC2SC(=O)NC2=O)cc1)c1ccccn1 (stereo not drawn) [ROSIGLITAZONE]	36.7	43.3	11.6	6.4	26.3	15.9	–	–	–	–
Cc1ccc(CN2C(=O)S/C(=C\c3ccccc3Cl)C2=O)cc1	19.2	14.8	43.3	26	–	–	47	20	–	–
COc1ccc(/C=C2\SC(=O)N(Cc3ccc(C)cc3)C2=O)c(OC)c1	21.8	40	34.6	46.5	–	–	–	–	20.1	–
Cc1ccc(CN2C(=O)S/C(=C\c3ccc(N(C)C)cc3)C2=O)cc1	14.9	–	40.8	44.1	–	–	35.8	17.4	–	–
Cc1ccc(CN2C(=O)S/C(=C\c3ccc(O)cc3)C2=O)cc1	19.9	–	37.3	–	–	–	–	–	37.2	–
Cc1ccc(CN2C(=O)S/C(=C\c3cccc(Br)c3)C2=O)cc1	21.3	17.6	–	–	–	–	–	–	–	–
Cc1ccc(CN2C(=O)S/C(=C\c3ccc(Cl)cc3)C2=O)cc1	18.7	–	22.8	48	–	–	–	–	31.5	27.1
